Data taken from patent publication US12215332B2, “Method of increasing resistance against soybean rust in transgenic plants by increasing the scoparone” (BASF PLANT SCIENCE COMPANY GMBH, priority 2018, dated 2025).
Entries after “also recorded” stand apart in the source; their conditions may differ.

Assays:
[1] = test system: Phakopsora pachyrhizi uredospores; test: In vitro growth inhibition of Phakopsora pachyrhizi: appressoria formation on glass slides; format: cell-based
Description: FIG. 2 depicts the inhibition of P. pachyrhitzi appressoria formation by scoparone in a concentration-dependent manner. P. pachyrhizi uredospores were resuspended in H2O supplemented with Tween-20 and 10 μM, 25 μM, 50 μM, 100 μM, 200 μM and 400 μM scoparone (solved in 0.1% DMSO) and incubated on glass slides in high humidity conditions. Treatment with 0.1% DMSO and H2O served as controls. The appressoria formation rate was determined by quantitative microscopic analysis. Only spores showing germtube formation with a visible thickening of the germ tube tip were counted as appressoria formation.
Uredospores of P. pachyrhizi (isolate BRO5) were harvested from heavily infected soybean leaves and equally suspended in water by shaking for 25 s at 5′000 rpm on a Precellys 24 homogenizer in the absence of homogenizing beads (Bertin instruments). […] Germination of spores and fungal development was evaluated by counting developing appressoria in the presence of 10-400 μM scoparone (in 0.1% DMSO) and compared to fungal proliferation in presence of H2O or 0.1% DMSO only (controls).
The germination rate and appressoria formation rate was determined by quantitative microscopic analysis. Spores showing a visible germ tube formation but no thickening of the germ tube tip were counted as “germinated”, whereas the presence of a thickened germ tube tip indicated the formation of an appressoria. […]

[2] = ABTS assay of coumarins' antioxidant activity; format: physicochemical; conditions: absorbance at 734 nm, 7 minutes at 37° C., compared to scopoletin, scopolin, umbelliferone, ascorbic acid and Trolox
Description: Antioxidant activity of scoparone was determined in an 2,2′-azinobis-(3-ethylbenzothiazoline-6-sulfonic acid) (ABTS)-assay and compared to authentic analytical standards of scopoletin, scopolin, umbelliferone, ascorbic acid and Trolox (6-hydroxy-2,5,7,8-tetramethylchroman-2-carboxylic acid).
The 2,2′-azinobis-(3-ethylbenzothiazoline-6-sulfonic acid (ABTS)-assay10 was applied to compare the antioxidant activity of different coumarins to Trolox and ascorbic acid as references. The radical monocation of ABTS (ABTS·+) was generated by oxidation of ABTS with potassium persulfate (K2S2O8) This was done by mixing aqueous ABTS (7 mM) and K2S2O8 (2.4 mM) in a 1:1 ratio (v/v). The mixture was placed in the dark and incubated at room temperature for 16 hours and then diluted with ethanol to an absorbance of 0.7 (±0.02) at 734 nm. All solutions were brought to a temperature of 37° C. Next, 990 μl of ABTS·+ was mixed with 10 μl of a test solution containing different concentrations of a coumarin standard. Ascorbic acid and Trolox served as positive and ethanol as the blanc control. Mixtures were incubated at 37° C. in a thermomixer (700 rpm) for 7 minutes. Absorbance at 734 nm was measured in a spectrophotometer following incubation for 7 minutes at 37° C. in a thermomixer (700 rpm).

COc1cc2ccc(=O)oc2cc1OC [scoparone, 6,7-dimethoxycoumarin]
formation of appressoria in-vitro ([1]; 400 μM scoparone): completely abolishes the formation of appressoria
appressoria formation rate ([1]; 10, 25, 50, 100, 200 and 400 μM scoparone in 0.1% DMSO, spores in H2O with Tween-20 on glass slides, controls 0.1% DMSO and H2O): inhibiting appressoria formation in a dose dependent manner; also recorded: decreases the formation of appressoria in a dose dependent manner
antioxidant activity [2]: lacks antioxidant activity
